Experimental data as given in ChEMBL document CHEMBL2034905, “Synthesis of benzimidazolyl-1,3,4-oxadiazol-2ylthio-N-phenyl (benzothiazolyl) acetamides as antibacterial, antifungal and antituberculosis agents” (Eur J Med Chem, 2012).
≈ marks a conversion by molar mass, not a printed value.

Columns and labels:
[1] = tested on: Mycobacterium tuberculosis; assay: Antituberculosis activity against Mycobacterium tuberculosis H37Rv by BACTEC MGIT method; assay type: functional
[2] = tested on: Mycobacterium tuberculosis; assay: Antituberculosis activity against Mycobacterium tuberculosis H37Rv at 6.25 ug/ml by BACTEC MGIT method; assay type: functional
[3] = tested on: Salmonella typhi; assay: Antibacterial activity against Salmonella typhi MTCC 733 at 100 ug/disc by paper disc diffusion technique; assay type: functional, Salmonella enterica subsp. enterica serovar Typhi; settings: Salmonella enterica, read-out: IZ
[4] = tested on: Bacillus cereus; assay: Antibacterial activity against Bacillus cereus MTCC 430 by agar streak dilution method; assay type: functional
[5] = tested on: Aspergillus fumigatus; assay: Antifungal activity against Aspergillus fumigatus MTCC 343 by agar streak dilution method; assay type: functional
[6] = tested on: Staphylococcus aureus; assay: Antibacterial activity against Staphylococcus aureus MTCC 96 by agar streak dilution method; assay type: functional
[7] = tested on: Aspergillus clavatus; assay: Antifungal activity against Aspergillus clavatus MTCC 1323 at 100 ug/disc by paper disc diffusion technique; assay type: functional; settings: read-out: IZ
[8] = tested on: Escherichia coli; assay: Antibacterial activity against Escherichia coli MTCC 739 at 100 ug/disc by paper disc diffusion technique; assay type: functional; settings: read-out: IZ
[9] = tested on: Escherichia coli; assay: Antibacterial activity against Escherichia coli MTCC 739 by agar streak dilution method; assay type: functional
[10] = tested on: Pseudomonas aeruginosa; assay: Antibacterial activity against Pseudomonas aeruginosa MTCC 741 at 100 ug/disc by paper disc diffusion technique; assay type: functional; settings: read-out: IZ
[11] = Lipophilicity, log P of the compound; assay type: physicochemical; settings: octanol/water
[12] = tested on: Candida albicans; assay: Antifungal activity against Candida albicans MTCC 183 at 100 ug/disc by paper disc diffusion technique; assay type: functional; settings: read-out: IZ
[13] = tested on: Shigella flexneri; assay: Antibacterial activity against Shigella flexneri MTCC 1457 by agar streak dilution method; assay type: functional
[14] = tested on: Proteus vulgaris; assay: Antibacterial activity against Proteus vulgaris MTCC 1771 at 100 ug/disc by paper disc diffusion technique; assay type: functional; settings: read-out: IZ
[15] = tested on: Bacillus cereus; assay: Antibacterial activity against Bacillus cereus MTCC 430 at 100 ug/disc by paper disc diffusion technique; assay type: functional; settings: read-out: IZ
[16] = tested on: Candida albicans; assay: Antifungal activity against Candida albicans MTCC 183 by agar streak dilution method; assay type: functional
[17] = tested on: Aspergillus clavatus; assay: Antifungal activity against Aspergillus clavatus MTCC 1323 by agar streak dilution method; assay type: functional
[18] = tested on: Staphylococcus aureus; assay: Antibacterial activity against Staphylococcus aureus MTCC 96 at 100 ug/disc by paper disc diffusion technique; assay type: functional; settings: read-out: IZ
[19] = tested on: Shigella flexneri; assay: Antibacterial activity against Shigella flexneri MTCC 1457 at 100 ug/disc by paper disc diffusion technique; assay type: functional; settings: read-out: IZ
[20] = tested on: Klebsiella pneumoniae; assay: Antibacterial activity against Klebsiella pneumoniae MTCC 109 by agar streak dilution method; assay type: functional
[21] = tested on: Aspergillus niger; assay: Antifungal activity against Aspergillus niger MTCC 282 at 100 ug/disc by paper disc diffusion technique; assay type: functional; settings: read-out: IZ
[22] = tested on: Aspergillus niger; assay: Antifungal activity against Aspergillus niger MTCC 282 by agar streak dilution method; assay type: functional
[23] = tested on: Aspergillus fumigatus; assay: Antifungal activity against Aspergillus fumigatus MTCC 343 at 100 ug/disc by paper disc diffusion technique; assay type: functional; settings: read-out: IZ
[24] = tested on: Pseudomonas aeruginosa; assay: Antibacterial activity against Pseudomonas aeruginosa MTCC 741 by agar streak dilution method; assay type: functional
[25] = tested on: Mycobacterium tuberculosis; assay: Antituberculosis activity against Mycobacterium tuberculosis H37Rv at 6.25 ug/ml by Lowenstein-Jensen method; assay type: functional
[26] = tested on: Klebsiella pneumoniae; assay: Antibacterial activity against Klebsiella pneumoniae MTCC 109 at 100 ug/disc by paper disc diffusion technique; assay type: functional; settings: read-out: IZ
[27] = tested on: Salmonella typhi; assay: Antibacterial activity against Salmonella typhi MTCC 733 by agar streak dilution method; assay type: functional, Salmonella enterica subsp. enterica serovar Typhi; settings: Salmonella enterica
[28] = tested on: Proteus vulgaris; assay: Antibacterial activity against Proteus vulgaris MTCC 1771 by agar streak dilution method; assay type: functional
[29] = tested on: Mycobacterium tuberculosis; assay: Antituberculosis activity against Mycobacterium tuberculosis H37Rv by Lowenstein-Jensen method; assay type: functional

Row | SMILES | MIC [1] | zone of inhibition at 100 µg/disc [3] | MIC [4] | MIC [5] | MIC [6] | zone of inhibition at 100 µg/disc [7] | zone of inhibition at 100 µg/disc [8] | MIC [9] | zone of inhibition at 100 µg/disc [10] | logP [11] | zone of inhibition at 100 µg/disc [12] | MIC [13] | zone of inhibition at 100 µg/disc [14] | zone of inhibition at 100 µg/disc [15] | MIC [16] | MIC [17] | zone of inhibition at 100 µg/disc [18] | zone of inhibition at 100 µg/disc [19] | MIC [20] | zone of inhibition at 100 µg/disc [21] | also measured
1 | NC(=O)c1cnccn1 [PYRAZINAMIDE] | 6.25 µg/mL (≈ 50.8 µM) | – | – | – | – | – | – | – | – | – | – | – | – | – | – | – | – | – | – | – | inhibition at 6.25 µg/mL [2]: 99%
2 | COc1ccc2nc(NC(=O)CSc3nnc(Cn4cnc5ccccc54)o3)sc2c1 | > 6.25 µg/mL | 20 mm | 50 µg/mL (≈ 110 µM) | 100 µg/mL (≈ 221 µM) | 25 µg/mL (≈ 55.2 µM) | 22 mm | 18 mm | 50 µg/mL (≈ 110 µM) | 12 mm | 3.56 | 25 mm | 6.25 µg/mL (≈ 13.8 µM) | 26 mm | 20 mm | 25 µg/mL (≈ 55.2 µM) | 50 µg/mL (≈ 110 µM) | 19 mm | 24 mm | 50 µg/mL (≈ 110 µM) | 17 mm | MIC [22]: 50 µg/mL (≈ 110 µM); zone of inhibition at 100 µg/disc [23]: < 10 mm; MIC [24]: 100 µg/mL (≈ 221 µM); inhibition at 6.25 µg/mL [25]: 99%; zone of inhibition at 100 µg/disc [26]: 21 mm; MIC [27]: 50 µg/mL (≈ 110 µM); MIC [28]: 12.5 µg/mL (≈ 27.6 µM); MIC [29]: 12.5 µg/mL (≈ 27.6 µM)
3 | COc1ccc(NC(=O)CSc2nnc(Cn3cnc4ccccc43)o2)cc1 | 6.25 µg/mL (≈ 15.8 µM) | 20 mm | 50 µg/mL (≈ 126 µM) | 100 µg/mL (≈ 253 µM) | 100 µg/mL (≈ 253 µM) | < 10 mm | 20 mm | 50 µg/mL (≈ 126 µM) | 21 mm | 2.37 | 22 mm | 50 µg/mL (≈ 126 µM) | 21 mm | 18 mm | 50 µg/mL (≈ 126 µM) | 100 µg/mL (≈ 253 µM) | 13 mm | 19 mm | 100 µg/mL (≈ 253 µM) | 16 mm | MIC [22]: 100 µg/mL (≈ 253 µM); zone of inhibition at 100 µg/disc [23]: 10 mm; MIC [24]: 50 µg/mL (≈ 126 µM); inhibition at 6.25 µg/mL [25]: 99%; zone of inhibition at 100 µg/disc [26]: 11 mm; MIC [27]: 50 µg/mL (≈ 126 µM); MIC [28]: 25 µg/mL (≈ 63.2 µM); MIC [29]: 6.25 µg/mL (≈ 15.8 µM); inhibition at 6.25 µg/mL [2]: 99%
4 | O=C(CSc1nnc(Cn2cnc3ccccc32)o1)Nc1nc2ccc(F)cc2s1 | > 6.25 µg/mL | 24 mm | 6.25 µg/mL (≈ 14.2 µM) | 25 µg/mL (≈ 56.8 µM) | 3.12 µg/mL (≈ 7.08 µM) | 21 mm | 17 mm | 50 µg/mL (≈ 114 µM) | 20 mm | 3.85 | 23 mm | 6.25 µg/mL (≈ 14.2 µM) | 22 mm | 29 mm | 50 µg/mL (≈ 114 µM) | 50 µg/mL (≈ 114 µM) | 25 mm | 24 mm | 50 µg/mL (≈ 114 µM) | 21 mm | MIC [22]: 25 µg/mL (≈ 56.8 µM); zone of inhibition at 100 µg/disc [23]: 23 mm; MIC [24]: 50 µg/mL (≈ 114 µM); inhibition at 6.25 µg/mL [25]: 99%; zone of inhibition at 100 µg/disc [26]: 19 mm; MIC [27]: 25 µg/mL (≈ 56.8 µM); MIC [28]: 25 µg/mL (≈ 56.8 µM); MIC [29]: 12.5 µg/mL (≈ 28.4 µM)
5 | N#Cc1ccc2nc(NC(=O)CSc3nnc(Cn4cnc5ccccc54)o3)sc2c1 | > 6.25 µg/mL | 17 mm | 50 µg/mL (≈ 112 µM) | 50 µg/mL (≈ 112 µM) | 6.25 µg/mL (≈ 14 µM) | 18 mm | 24 mm | 25 µg/mL (≈ 55.9 µM) | 15 mm | 3.72 | 13 mm | 50 µg/mL (≈ 112 µM) | 19 mm | 22 mm | 100 µg/mL (≈ 223 µM) | 100 µg/mL (≈ 223 µM) | 24 mm | 21 mm | 25 µg/mL (≈ 55.9 µM) | 18 mm | MIC [22]: 50 µg/mL (≈ 112 µM); zone of inhibition at 100 µg/disc [23]: 22 mm; MIC [24]: 50 µg/mL (≈ 112 µM); inhibition at 6.25 µg/mL [25]: 95%; zone of inhibition at 100 µg/disc [26]: 25 mm; MIC [27]: 100 µg/mL (≈ 223 µM); MIC [28]: 50 µg/mL (≈ 112 µM); MIC [29]: 100 µg/mL (≈ 223 µM)
6 | CCOc1ccc2nc(NC(=O)CSc3nnc(Cn4cnc5ccccc54)o3)sc2c1 | > 6.25 µg/mL | 19 mm | 50 µg/mL (≈ 107 µM) | 100 µg/mL (≈ 214 µM) | 12.5 µg/mL (≈ 26.8 µM) | 17 mm | 24 mm | 25 µg/mL (≈ 53.6 µM) | 18 mm | 3.9 | 26 mm | 50 µg/mL (≈ 107 µM) | 26 mm | 21 mm | 25 µg/mL (≈ 53.6 µM) | 100 µg/mL (≈ 214 µM) | 22 mm | 19 mm | 50 µg/mL (≈ 107 µM) | 20 mm | MIC [22]: 25 µg/mL (≈ 53.6 µM); zone of inhibition at 100 µg/disc [23]: 13 mm; MIC [24]: 50 µg/mL (≈ 107 µM); inhibition at 6.25 µg/mL [25]: 99%; zone of inhibition at 100 µg/disc [26]: 21 mm; MIC [27]: 50 µg/mL (≈ 107 µM); MIC [28]: 12.5 µg/mL (≈ 26.8 µM); MIC [29]: 50 µg/mL (≈ 107 µM)
7 | CC(=O)Nc1ccc2nc(NC(=O)CSc3nnc(Cn4cnc5ccccc54)o3)sc2c1 | > 6.25 µg/mL | 16 mm | 100 µg/mL (≈ 209 µM) | 100 µg/mL (≈ 209 µM) | 50 µg/mL (≈ 104 µM) | 23 mm | 20 mm | 50 µg/mL (≈ 104 µM) | < 10 mm | 2.6 | 23 mm | 100 µg/mL (≈ 209 µM) | 24 mm | 16 mm | 50 µg/mL (≈ 104 µM) | 50 µg/mL (≈ 104 µM) | 19 mm | 16 mm | 50 µg/mL (≈ 104 µM) | 24 mm | MIC [22]: 12.5 µg/mL (≈ 26.1 µM); zone of inhibition at 100 µg/disc [23]: < 10 mm; MIC [24]: 100 µg/mL (≈ 209 µM); inhibition at 6.25 µg/mL [25]: 98%; zone of inhibition at 100 µg/disc [26]: 20 mm; MIC [27]: 100 µg/mL (≈ 209 µM); MIC [28]: 12.5 µg/mL (≈ 26.1 µM); MIC [29]: 50 µg/mL (≈ 104 µM)
8 | CC[C@@H](CO)NCCN[C@@H](CC)CO [ETHAMBUTOL] | 3.12 µg/mL (≈ 15.3 µM) | – | – | – | – | – | – | – | – | – | – | – | – | – | – | – | – | – | – | – | inhibition at 6.25 µg/mL [2]: 99%
9 | CO[C@H]1/C=C/O[C@@]2(C)Oc3c(C)c(O)c4c(O)c(c(/C=N/N5CCN(C)CC5)c(O)c4c3C2=O)NC(=O)/C(C)=C\C=C\[C@H](C)[C@H](O)[C@@H](C)[C@@H](O)[C@@H](C)[C@H](OC(C)=O)[C@@H]1C [RIFAMPIN] | 0.25 µg/mL (≈ 0.304 µM) | – | – | – | – | – | – | – | – | – | – | – | – | – | – | – | – | – | – | – | inhibition at 6.25 µg/mL [2]: 99%
